# Assay results: patent publication US11680054B2, “Bronchodilating hetero-linked amides” (Arcede Pharma AB, priority 2018, dated 2023)
# What was measured:
# [1] = Solubility in phosphate buffer (pH 7.4); type: physicochemical; conditions: aqueous buffer, thermodynamic from solid; phosphate buffer pH 7.4, agitated 20 hours at 37° C.
# Protocol: The solubilities of 1-(5,8-Dichloro-6,7-dihydroxy-3,4-dihydroisoquinolin-2(1H)-yl)-2-(6-(trifluoromethyl)pyridin-3-ylthio)ethenone (example 1) and the known compound 1-(5,8-Dichloro-6,7-dihydroxy-3,4-dihydroisoquinolin-2(1H)-yl)-2-(6-(trifluoromethyl)pyridine-3-yloxy)ethanone in phosphate buffer (pH 7.4) were determined.
# Briefly, 1 mg of the study compounds were weighted into glass vials (two replicates). 2 ml of pH 7.4 phosphate buffer was added into the vials and vials were then agitated (1300 rpm) 20 hours at 37° C. Samples were filtrated using 0.45 μm PVDA syringe filters before analysis. 10 μg/ml and 500 μg/ml standard solutions in acetonitrile:ultra-pure water were prepared using 10 mM DMSO-stock solution. Samples and standards were analyzed from glass vials. The samples were analyzed using UPLC/PDA immediately after preparation. A Waters Acquity ultra high-performance liquid chromatographic (UPLC) system with autosampler, vacuum degasser, photo-diode-array detector (Acquity PDA) and column oven was used.
# male Sprague Dawley rats = test: Carbamylcholine-induced bronchospasm in anaesthetised rats (Konzett-Rossler method); type: in vivo; conditions: rat; for Bronchodilatating effect on carbamylcholine chloride induced bronchoconstriction: intra-tracheal, administered at 6 mM, smaller increase in pulmonary resistance compared to vehicle; for Total pulmonary resistance increase from baseline post carbamylcholine chloride challenge, Average: single intra-tracheal nebulization of 100 μl at 6 mM, 30 min before carbamylcholine chloride 275 μg/kg iv
# Protocol: The bronchocondilatator effect of example 1 and (2E)-1-(5,8-dichloro-3,4-dihydro-6,7-dihydroxy-2(1H)-isoquinolinyl)-3-[6-(trifluoromethyl)-3-pyridinyl]-2-propen-1-one was evaluated using the Konzett-Rossler method (cf. Konzett H, Rössler R (1940) Versuchsanordung zu Untersuchungen an der Bronchialmuskulatur. Naunyn-Schmiedeberg's Arch Exp Path Pharmakol 192:71-74) in the anaesthetised rat following single intra-tracheal administration.
# The study involved male Sprague Dawley rats, weighing between 291.1 g and 347.7 g on the day of the test.
# Animals were put on to a water-only fast the day prior to the test. On the day of the test, animals were anaesthetised using sodium pentobarbital at a dose of 60 mg/kg by intraperitoneal route in a volume of 1 mL/kg, then at 2 mg/mL by the intravenous route at a rate of 10 mL/kg/hour throughout the test. The trachea was quickly cannulated to enable artificial respiration. The animals were ventilated with an air flow of approximately 1 mL per 100 g at a rate of 54 cycles/minute. Total pulmonary resistance was measured continuously using a pressure transducer, fitted to a side branch of the tracheal cannula. Arterial blood pressure and heart rate were obtained by placing the telemetric pressure sensor of telemetric transmitter HD-S11 in the carotid artery. A jugular vein was cannulated for the intravenous administration of carbamylcholine chloride. The temperature of the animal was kept between 36.0° C. and 39.3° C. using an electric blanket. At the end of the surgical phase, animals were pre-medicated with a solution of pancuronium bromide at 0.2 mg/mL by the intravenous route at a rate of 10 mL/kg/hour throughout the test to avoid spontaneous respiration. Ventilatory flow was adjusted in such way as to obtain a baseline stabilisation of the pulmonary pressure resistance between 6.5 to 10.5 mmHg (i.e. approximately between 10 to 15% of maximum pulmonary resistance). About 15 minutes after the end of the surgical phase and stabilisation of the pulmonary pressure signal, the animals were dosed with: • 1. Example 1; • 2. (2E)-1-(5,8-dichloro-3,4-dihydro-6,7-dihydroxy-2(1H)-isoquinolinyl)-3-[6-(trifluoromethyl)-3-pyridinyl]-2-propen-1-one; or • 3. Their vehicle
# by intra-tracheal nebulization in a volume of 100 μl using a Microsprayer aerosolizer (Penncentury).
# Thirty minutes later, carbamylcholine chloride at 275 μg/kg was administered using an infusion pump in a volume of 3.33 mL/kg over a 5-minute period. Total pulmonary resistance, mean, systolic and diastolic arterial blood pressure and heart rate were continuously recorded over the test.
# Example 1 was formulated by dissolving 5.5 mg in 2015 μl vehicle (200 mM (2-hydroxypropyl)-β-cyclodextrin, 49 mM L-lysine, 6.2 mM L-ascorbic acid in MilliQ water). […]
# [2] = system: human peripheral blood mononuclear cell (PBMC); test: Human PBMC in vitro model, LPS induced MCP-1 and LTB-4 levels; type: cell-based; conditions: for LTB-4 reduction (%) / MCP-1 reduction (%): LPS 0.1 μg/ml, 24 h
# Protocol: Cryopreserved PBMC's (SeraCare, #72001) are thawed, washed with culture media (RPMI-1640 from Invitrogen, #61870-036+10% heat inactivated fetal bovine serum from Invitrogen, #10082-147+100 U/ml penicillin+100 μg/ml streptomycin) and tested for viability using Trypan blue (PBMC viability=96%). Cells are then resuspended to 1×10^6 cells/ml in culture media and 0.5 ml plated into 24 well culture plates (5×10^5 cells/well) before incubation for 30 minutes at 37° C. with 5% C02 prior to addition of a compound to be assessed (10 μM) or dexamethasone (1 μM). One hour thereafter, LPS (0.1 μg/ml, Salmonella abortus equi, Sigma, #L1887) are added and the cells are incubated for another 24 h before collection of the cell culture supernatants, which are assayed for the presence of MCP-1 and LTB4.
# MCP-1 levels are quantified employing a Luminex-based assay according the manufacturer's instructions. Data are collected using a Luminex 100 (Luminex Corporation, Austin, Tex.). Standard curves are generated using a 5-parameter logistic curve fitting equation weighted by 1/y (StarStation V 2.0; Applied Cytometry Systems, Sacramento, Calif.). Each sample reading are interpolated from the appropriate standard curve. Calculated concentrations are multiplied by the appropriate dilution factor when necessary.
# LTB4 levels are quantified by ELISA following the manufacturer's instructions. Absorbance readings are detected using a ThermoMax microplate reader (Molecular Devices). Standard curves are generated using a 4-parameter logistic curve fitting equation (SoftMax Pro 4.7.1; Molecular Devices). Each sample reading are interpolated from the appropriate standard curve. Duplicate interpolated sample values are averaged and standard deviations are calculated. Calculated concentrations are multiplied by the appropriate dilution factor.
# The reults in lowering MCP-1 and LTB-4 levels compared to vehicle (negative control) and 1 μM dexamethasone (positive control) are given below.
# human bronchiols = test: Leukotriene D4 induced contraction of human bronchus preparations, in vitro model; conditions: pre-treatment with compound at 10 μM; Leukotriene D4 (10 nM) induced contraction of human bronchiols
# Protocol: The usefulness of the compounds, as defined in the preceding embodiments, in treating, pretreating, revoking, mitigating, alleviating and/or preventing a condition of the respiratory apparatus characterized by bronchoconstriction, were evaluated in a complex and relevant in vitro model. The in vitro model was in accordance with the in vitro model disclosed in US 2006-0040254 A1 and Skogvall, S., Berglund, M., Dalence-Guzmán, M. F., Svensson, K., Jönsson, P., Persson, C. G. A and Sterner, O., Pulmonary Pharmacology and Therapeutics, vol 20:3, 2007, p. 273-280. All references disclosed herein are hereby incorporated in their entirety by reference.
# In short, lung tissue was obtained from patients undergoing lobectomia or pulmectomia due to lung carcinoma. From the bronchus of this tissue were rectangular oblong preparations obtained. The contraction induced by inflammatory mediators, such as Leukotriene D4, histamine, prostaglandin D2 or acetylcholine, in the presence and absence of the compound to be evaluated, were compared.
# The usefulness of the compounds, as defined in the embodiments herein, in treating, revoking, mitigating, alleviating and/or preventing a condition of the respiratory apparatus characterized by bronchoconstriction, were evaluated in a complex and relevant in vitro model, which is described in US 2006-0040254 A1 and Skogvall, S., Berglund, M., Dalence-Guzmán, M. F., Svensson, K., Jönsson, P., Persson, C. G. A and Sterner, O., Pulmonary Pharmacology and Therapeutics, vol 20:3, 2007, p. 273-280. All references disclosed herein are hereby incorporated in their entirety by reference.
# The remaining contraction, after pre-treatment with various compound examples at a concentration of 10 μM, of human bronchiols after Leukotriene D4 (10 nM) induced contraction according to the in vitro method described herein above are tabulated below.
# [3] = dexamethasone 1 μM (positive control)
# [4] = compound 10 μM, compared to vehicle
compound,measurement,setting,value
"O=C(COc1ccc(C(F)(F)F)nc1)N1CCc2c(Cl)c(O)c(O)c(Cl)c2C1 [1-(5,8-Dichloro-6,7-dihydroxy-3,4-dihydroisoquinolin-2(1H)-yl)-2-(6-(trifluoromethyl)pyridine-3-yloxy)ethanone, reference compound]",solubility at 20 h,[1],76.7 µg/mL
"O=C(/C=C/c1ccc(C(F)(F)F)nc1)N1CCc2c(Cl)c(O)c(O)c(Cl)c2C1 [(2E)-1-(5,8-dichloro-3,4-dihydro-6,7-dihydroxy-2(1H)-isoquinolinyl)-3-[6-(trifluoromethyl)-3-pyridinyl]-2-propen-1-one, reference compound]",Bronchodilatating effect on carbamylcholine chloride induced bronchoconstriction,male Sprague Dawley rats,had a bronchodilatating effect
same,"Total pulmonary resistance increase from baseline post carbamylcholine chloride challenge, Average",male Sprague Dawley rats,2.86 mmHg
"C[C@@H]1C[C@H]2[C@@H]3CCC4=CC(=O)C=C[C@]4(C)[C@@]3(F)[C@@H](O)C[C@]2(C)[C@@]1(O)C(=O)CO [Dexamethasone, dexamethasone, reference compound]",LTB-4 reduction (%),[2]; [3],23.4%
same,MCP-1 reduction (%),[2]; [3],15.5%
"O=C(CSc1ccc(C(F)(F)F)nc1)N1CCc2c(Cl)c(O)c(O)c(Cl)c2C1 [Example 1, 1-(5,8-Dichloro-6,7-dihydroxy-3,4-dihydroisoquinolin-2(1H)-yl)-2-(6-(trifluoromethyl)pyridin-3-ylthio)ethanone]",solubility at 20 h,[1],16.6 µg/mL
same,Remaining contraction (%),human bronchiols,7%
same,Reduction of inflammatory markers (MCP-1 and LTB-4),"[2]; 10 μM, LPS stimulated PBMC",significant reduction
same,LTB-4 reduction (%),[2]; [4],20.7%
same,MCP-1 reduction (%),[2]; [4],70.8%
same,Bronchodilatating effect on carbamylcholine chloride induced bronchoconstriction,male Sprague Dawley rats,had a bronchodilatating effect
same,"Total pulmonary resistance increase from baseline post carbamylcholine chloride challenge, Average",male Sprague Dawley rats,2.33 mmHg
"Cc1nc(C(F)(F)F)ccc1SCC(=O)N1CCc2c(Cl)c(O)c(O)c(Cl)c2C1 [Example 2, 1-(5,8-Dichloro-6,7-dihydroxy-3,4-dihydroisoquinolin-2(1H)-yl)-2-(2-methyl-6-(trifluoromethyl)pyridin-3-ylthio)ethanone]",Remaining contraction (%),human bronchiols,14%
"Cc1cc(C(F)(F)F)cc(SCC(=O)N2CCc3c(Cl)c(O)c(O)c(Cl)c3C2)n1 [Example 3, 1-(5,8-Dichloro-6,7-dihydroxy-3,4-dihydroisoquinolin-2(1H)-yl)-2-(6-methyl-4-(trifluoromethyl)pyridin-2-ylthio)ethanone]",Remaining contraction (%),human bronchiols,16%
"O=C(C1CCCN(c2ccc(F)cn2)C1)N1CCc2c(Cl)c(O)c(O)c(Cl)c2C1 (stereo not drawn) [Example 4, (5,8-Dichloro-6,7-dihydroxy-3,4-dihydroisoquinolin-2(1H)-yl)(1-(5-fluoropyridin-2-yl)piperidin-3-yl)methanone]",Remaining contraction (%),human bronchiols,51%
